As usually defined, the AC50 is the midpoint of the concentration-response curve, whichever way the signal moves.

The record followed here is patent US12344610B2, “APOL1 inhibitors and methods of use” (Maze Therapeutics, Inc., priority 2022, dated 2025).

This assay has as its target T1, APOL1 G2 (Homo sapiens, UniProt O14791, DEL388-389).
T1 construct: expressed in transfected cells; host or cells: HEK293 T-REx clonal line stably expressing GCaMP6f (HEK T-REx/GCaMP6f/APOL1 G2 K6.3), doxycycline induced
T1 sequence (O14791 with tags, fused parts or gaps DEL388-389): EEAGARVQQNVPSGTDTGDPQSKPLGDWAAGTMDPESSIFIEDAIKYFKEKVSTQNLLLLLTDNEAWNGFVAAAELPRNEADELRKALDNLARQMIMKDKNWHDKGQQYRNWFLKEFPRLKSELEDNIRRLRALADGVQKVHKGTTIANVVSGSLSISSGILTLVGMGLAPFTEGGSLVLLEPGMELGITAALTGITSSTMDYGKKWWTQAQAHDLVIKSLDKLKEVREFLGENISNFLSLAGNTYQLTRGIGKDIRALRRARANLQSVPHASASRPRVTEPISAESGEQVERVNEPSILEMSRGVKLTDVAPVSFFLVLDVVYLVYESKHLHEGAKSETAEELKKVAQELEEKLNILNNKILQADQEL
In words: APOL1-mediated calcium transport (calcium influx) assay, HEK T-REx/GCaMP6f/APOL1 G2 K6.3 cells, FLIPR TETRA. The assay is classed as cell-based. To be noted: prevention of calcium influx; geometric mean of at least 2 assay runs; † = average of a technical replicate from a single assay run. A digest of the protocol: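 A HEK293 T-REx clone stably expressing GCaMP6f had APOL1 G2 induced with doxycycline (20 ng/mL solution added) for 6 h. Cells were then washed into Ca2+-free Tyrode's buffer (pH 7.4) and preincubated with compounds (duplicate 8-point) for 10 min at room temperature. Ca2+ injection to 5 mM final produced FLIPR GCaMP fluorescence, giving AC50 for influx inhibition (geometric mean, ≥2 runs).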
Regarding `CC(COc1ccc2c(c1)CCC(=O)N2C)N1CCC2(CC1)C(=O)Nc1ccc(Cl)cc12` (single isomer, unassigned) [Compound 200], the AC50 was determined as 1200 nM.

For the compound `CC(COc1ccc2c(c1)CCC(=O)N2C)N1CCC2(CC1)C(=O)Nc1ccc(C#N)cc12` (single isomer, unassigned) [Compound 203, (S) or (R)-1′-{1-[(1-methyl-2-oxo-1,2,3,4-tetrahydroquinolin-6-yl)oxy]propan-2-yl}-2-oxo-1,2-dihydrospiro[indole-3,4′-piperidine]-5-carbonitrile], the AC50 came out at 1190 nM.

On to `C[C@@H](COc1ccc(S(C)(=O)=O)c(C(F)F)c1)N1CCC2(CC1)C(=O)Nc1ccc(Cl)cc12` (single isomer, unassigned) [Compound 210], for which the AC50 turned out to be 1540 nM.

In the case of `C[C@@H](COc1ccc2c(cnn2C)c1)N1CCC2(CC1)C(=O)Nc1ccc(Cl)cc12` (single isomer, unassigned) [Compound 211], the AC50 was 1290 nM.

Consider `C[C@@H](COc1ccc(S(C)(=O)=O)c(C(F)F)c1)N1CCC2(CC1)C(=O)Nc1ccc(C#N)cc12` (single isomer, unassigned) [Compound 212], for which the half-maximal activity concentration (AC50) turned out to be 1360 nM.

On to `CS(=O)(=O)c1ccc(OCCN2CCC3(CC2)C(=O)Nc2ccc(Cl)cc23)cc1C(F)CF` (single isomer, unassigned) [Compound 218, 5-chloro-1′-(2-{3-[(1S or 1R)-1,2-difluoroethyl]-4-methanesulfonylphenoxy}ethyl)-1,2-dihydrospiro[indole-3,4′-piperidin]-2-one], for which the AC50 was found to be 690 nM.

As to `CS(=O)(=O)c1ccc(OCCN2CCC3(CC2)C(=O)Nc2ccc(Cl)cc23)cc1C(F)CF` (single isomer, unassigned) [Compound 219, 5-chloro-1′-(2-{3-[(1R or 1S)-1,2-difluoroethyl]-4-methanesulfonylphenoxy}ethyl)-1,2-dihydrospiro[indole-3,4′-piperidin]-2-one], the AC50 is 835 nM.

For `CS(=O)(=O)c1ccc(OCCN2CCC3(CC2)C(=O)Nc2ccc(C#N)cc23)cc1C(F)CF` (single isomer, unassigned) [Compound 221, 1′-(2-{3-[(1S or 1R)-1,2-difluoroethyl]-4-methanesulfonyl-phenoxy}ethyl)-2-oxo-1,2-dihydrospiro [indole-3,4′-piperidine]-5-carbonitrile], the AC50 was determined as 598 nM.

`CC(COc1ccc(C2(S(C)(=O)=O)COC2)cc1)N1CCC2(CC1)C(=O)Nc1ccc(C#N)cc12` (single isomer, unassigned) [Compound 263, (S) or (R)-1′-{1-[4-(3-methanesulfonyloxetan-3-yl)phenoxy]propan-2-yl}-2-oxo-1,2-dihydrospiro[indole-3,4′-piperidine]-5-carbonitrile]: the AC50 was 2540 nM.

Turning to `CN1C(=O)C2(CCN(CCOc3ccc(C4(S(C)(=O)=O)CC(O)C4)cc3)CC2)c2cc(C(F)F)ccc21` (single isomer, unassigned) [Compound 278, 5-(difluoromethyl)-1-methyl-1′-(2-{4-[(cis) or (trans)-3-hydroxy-1-methanesulfonylcyclobutyl]phenoxy}ethyl)-1,2-dihydrospiro[indole-3,4′-piperidin]-2-one], the AC50 was 769 nM.

With `CS(=O)(=O)C1(c2ccc(OCCN3CCC4(CC3)C(=O)Nc3ccc(C(F)F)cc34)cc2)CC(O)C1` (single isomer, unassigned) [Compound 281, 5-(difluoromethyl)-1′-(2-{4-[(cis) or (trans)-3-hydroxy-1-methanesulfonylcyclobutyl]phenoxy}ethyl)-1,2-dihydrospiro[indole-3,4′-piperidin]-2-one], the AC50 stood at 1310 nM.

`CC(O)c1ncc(OCCN2CCC3(CC2)C(=O)Nc2ccc(Cl)cc23)cn1` (single isomer, unassigned) [Compound 285, 5-chloro-1′-[2-({2-[(1S) or (1R)-1-hydroxyethyl]pyrimidin-5-yl}oxy)ethyl]-1,2-dihydrospiro[indole-3,4′-piperidin]-2-one]: the AC50 stood at 714 nM.

Consider `CC(O)c1ncc(OCCN2CCC3(CC2)C(=O)Nc2ccc(Cl)cc23)cn1` (single isomer, unassigned) [Compound 286, 5-chloro-1′-[2-({2-[(1R) or (1S)-1-hydroxyethyl]pyrimidin-5-yl}oxy)ethyl]-1,2-dihydrospiro[indole-3,4′-piperidin]-2-one], for which the AC50 amounted to 917 nM.

For `CC(O)c1ncc(OCCN2CCC3(CC2)C(=O)Nc2ccc(C(F)F)cc23)cc1C(F)(F)F` (single isomer, unassigned) [Compound 287, 5-(difluoromethyl)-1′-[2-({6-[(1S) or (1R)-1-hydroxyethyl]-5-(trifluoromethyl)pyridin-3-yl}oxy)ethyl]-1,2-dihydrospiro[indole-3,4′-piperidin]-2-one], the AC50 was 303 nM.

With `CC(O)c1ncc(OCCN2CCC3(CC2)C(=O)Nc2ccc(C(F)F)cc23)cc1C(F)(F)F` (single isomer, unassigned) [Compound 288, 5-(difluoromethyl)-1′-[2-({6-[(1R) or (1S)-1-hydroxyethyl]-5-(trifluoromethyl)pyridin-3-yl}oxy)ethyl]-1,2-dihydrospiro[indole-3,4′-piperidin]-2-one], the AC50 is 369 nM.

Take `CC[C@]1(O)C[C@H](N2C(=O)CCc3cc(OCCN4CCC5(CC4)C(=O)Nc4ccc(Cl)cc45)cnc32)C1` (single isomer, unassigned) [Compound 290, 5-chloro-1′-[2-({7-oxo-8-[(trans)-3-ethyl-3-hydroxycyclobutyl]-5,6,7,8-tetrahydro-1,8-naphthyridin-3-yl}oxy)ethyl]-1,2-dihydrospiro[indole-3,4′-piperidin]-2-one]: the AC50 was found to be 253 nM.

In the case of `CC(O)c1ncc(OCCN2CCC3(CC2)C(=O)Nc2ccc(Cl)cc23)cc1C(F)(F)F` (single isomer, unassigned) [Compound 291, 5-chloro-1′-[2-({6-[(1R) or (1S)-1-hydroxyethyl]-5-(trifluoromethyl)pyridin-3-yl}oxy)ethyl]-1,2-dihydrospiro[indole-3,4′-piperidin]-2-one], the AC50 turned out to be 1190 nM.

In the case of `CC(O)c1ncc(OCCN2CCC3(CC2)C(=O)Nc2ccc(Cl)cc23)cc1C(F)(F)F` (single isomer, unassigned) [Compound 292, 5-chloro-1′-[2-({6-[(1S) or (1R)-1-hydroxyethyl]-5-(trifluoromethyl)pyridin-3-yl}oxy)ethyl]-1,2-dihydrospiro[indole-3,4′-piperidin]-2-one], the AC50 is 1300 nM.

Take `O=C1CCc2cc(OCCN3CCC4(CC3)C(=O)Nc3ccc(Cl)cc34)cnc2N1[C@H]1C[C@@](O)(C2CC2)C1` (single isomer, unassigned) [Compound 297, 5-chloro-1′-[2-({7-oxo-8-[(trans)-3-cyclopropyl-3-hydroxycyclobutyl]-5,6,7,8-tetrahydro-1,8-naphthyridin-3-yl}oxy)ethyl]-1,2-dihydrospiro[indole-3,4′-piperidin]-2-one]: the AC50 was determined as 937 nM.

`C[C@]1(O)C[C@H](N2C(=O)CCc3cc(OCCN4CCC5(CC4)C(=O)Nc4ccc(Cl)cc45)cnc32)C1` (single isomer, unassigned) [Compound 307, 5-chloro-1′-[2-({7-oxo-8-[(trans)-3-hydroxy-3-methylcyclobutyl]-5,6,7,8-tetrahydro-1,8-naphthyridin-3-yl}oxy)ethyl]-1,2-dihydrospiro[indole-3,4′-piperidin]-2-one]: the AC50 came to 320 nM.
